Source: patent US7488799B2, “Prostaglandin receptor protein” (Aventis Pharmaceuticals Inc., priority 2003, dated 2009)

Key:
[1] = system: recombinant guinea pig DP receptor; experiment: Intracellular calcium assay (FLIPR), guinea pig DP receptor in HEK293-Gα16 cells; format: cell-based, guinea pig (Cavia porcellus); details: guinea pig DP-expressing HEK293-Gα16 cells, FIG. 6, read-out: EC50, intracellular calcium mobilization
Description: For functional characterization the newly cloned guinea pig DP receptor was stably transfected into HEK293-Gα16 cells and for comparison an equivalent cell line was generated with the mouse DP receptor. Both DP receptor-expressing cell lines, as well as the parental cell line not expressing any transfected DP receptor, were evaluated in a second messenger assay using the force coupling of the receptor to Gα16 to elicit a calcium response. Intracellular calcium measurements were performed using non-transfected HEK293-Gα16 cells or cells transfected with either the pEAK10-gpDP or the pEAK10-mDP expression vectors. Transfected and non-transfected cells were plated in 384 well plates at 10,000 cells per well. Cells were washed three times with calcium assay buffer. Cells were then incubated with 4 μM of the calcium loading dye Fura-4/AM (Molecular Probes) at 37° C. for x min. Unincorporated fura-4/AM was removed by three further washes with calcium assay buffer. Intracellular calcium was measured following PGD2 or buffer stimulation of Fura-4/AM loaded cells using a FLIPR instrument (Molecular Devices Corp.).

[2] = target: T1, mouse DP receptor (Mus musculus, UniProt P70263); experiment: Intracellular calcium assay (FLIPR), mouse DP receptor in HEK293-Gα16 cells; format: cell-based; details: mouse DP-expressing HEK293-Gα16 cells, FIG. 6, read-out: EC50, intracellular calcium mobilization
T1 construct: A full length cDNA for the mouse DP receptor was obtained by PCR; expressed in transfected cells
T1 sequence (P70263 1-357): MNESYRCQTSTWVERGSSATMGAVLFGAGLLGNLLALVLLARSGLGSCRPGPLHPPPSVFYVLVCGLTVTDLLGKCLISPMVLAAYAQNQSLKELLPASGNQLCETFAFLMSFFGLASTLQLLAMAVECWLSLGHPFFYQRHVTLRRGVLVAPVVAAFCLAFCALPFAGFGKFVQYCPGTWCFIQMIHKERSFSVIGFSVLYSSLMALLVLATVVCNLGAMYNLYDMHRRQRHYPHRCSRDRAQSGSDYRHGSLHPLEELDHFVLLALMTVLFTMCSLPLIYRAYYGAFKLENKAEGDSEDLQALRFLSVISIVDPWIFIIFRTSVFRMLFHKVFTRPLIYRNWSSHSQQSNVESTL
Description: The pEAK10-gpDP and pEAK10-mDP vectors were transfected into the HEK293-Gα16 cell line using Lipofectamine 2000 (Gibco) as described by the manufacturer. Transfected cells were cultured under selection with 1 ug/ml puromycin and 250 ug/ml zeocin for 5 weeks. Expression of the DP receptor was monitored in the transfected cell population by measuring the release of intracellular calcium in response to PGD2 stimulation.
For functional characterization the newly cloned guinea pig DP receptor was stably transfected into HEK293-Gα16 cells and for comparison an equivalent cell line was generated with the mouse DP receptor. Both DP receptor-expressing cell lines, as well as the parental cell line not expressing any transfected DP receptor, were evaluated in a second messenger assay using the force coupling of the receptor to Gα16 to elicit a calcium response. Intracellular calcium measurements were performed using non-transfected HEK293-Gα16 cells or cells transfected with either the pEAK10-gpDP or the pEAK10-mDP expression vectors. Transfected and non-transfected cells were plated in 384 well plates at 10,000 cells per well. Cells were washed three times with calcium assay buffer. […] Intracellular calcium was measured following PGD2 or buffer stimulation of […] loaded cells using a FLIPR instrument (Molecular Devices Corp.).

[3] = system: recombinant guinea pig DP receptor; experiment: SPA cAMP assay, guinea pig DP cell line; format: cell-based, guinea pig (Cavia porcellus); details: 15 minutes stimulation, FIG. 7, read-out: EC50, cAMP accumulation
Description: (§1) An additional functional characterization of the newly cloned guinea pig DP receptor used the natural signaling pathway for DP, the stimulation of cAMP production by adenylate cyclase. Transfected or non-transfected cells were plated at 40,000 cells per well of a 96 well plate. After overnight incubation at 37° C., medium was replaced and cells were stimulated with defined concentrations of PGD2 for 15 minutes. The accumulation of cAMP was measured in the stimulated cells using the cAMP SPA Direct Screening Assay System (Amersham) according to procedures specified by the manufacturer.

[4] = target: T1, mouse DP receptor; experiment: SPA cAMP assay, mouse DP cell line; format: cell-based; details: 15 minutes stimulation, FIG. 7, read-out: EC50, cAMP accumulation
[5] = system: parental HEK293-Gα16 cell line; experiment: Intracellular calcium assay (FLIPR), parental cell line without transfected DP receptor; format: cell-based; details: parental HEK293-Gα16 cells, no transfected DP receptor
Excerpt: The cDNA encoding human Gα16 was cloned as described (Amatruda et al., 1991). Briefly, total RNA from HL-60 human promyelocytic leukemia cells was isolated and used as a template for PCR-mediated synthesis of cDNA encoding Gα16. The resulting PCR product was cloned into the expression vector pHook-3 (Invitrogen), which also coexpresses a single-chain antibody (sFv) to allow convenient enrichment of transfected cells using a panning protocol with hapten-coated magnetobeads (Chesnut et al., 1996). HEK293 cells were transfected with the constructed plasmid (pGα16), selected with Zeocin and positive clones enriched using magnetobeads according to protocols supplied by the vendor. […]
For functional characterization the newly cloned guinea pig DP receptor was stably transfected into HEK293-Gα16 cells and for comparison an equivalent cell line was generated with the mouse DP receptor. Both DP receptor-expressing cell lines, as well as the parental cell line not expressing any transfected DP receptor, were evaluated in a second messenger assay using the force coupling of the receptor to Gα16 to elicit a calcium response. […] Intracellular calcium was measured following PGD2 or buffer stimulation of […] loaded cells using a FLIPR instrument (Molecular Devices Corp.).

[6] = system: parental HEK293-Gα16 cell line; experiment: SPA cAMP assay, parental cell line; format: cell-based; details: parental HEK293-Gα16 cells, 15 minutes stimulation
Description: as §1

Question: For CCCCC[C@H](O)/C=C/[C@H]1C(=O)C[C@H](O)[C@@H]1C/C=C\CCCC(=O)O [PGD2, Prostaglandin D2], which EC50 [1] is on record?
Answer: The EC50 was 1.4 nM.

Question: What about the EC50 [2] of the same compound?
Answer: The EC50 was 18 nM.

Question: What about the EC50 [3] of the same compound?
Answer: The EC50 was 0.8 nM.

Question: What about the EC50 [4] of the same compound?
Answer: The EC50 was 0.5 nM.

Question: And the “PGD2 concentration at which a calcium response is seen” value [5]?
Answer: Its value is “above 10 μM”.

Question: And the “intracellular cAMP response to stimulation” value [6]?
Answer: The value was “did not show an increase in intracellular cAMP”.
